Source: US7368462B1, “Melanin concentrating hormone antagonists” (The Procter & Gamble Company, priority 2004, dated 2008)

Key:
MCH1R = MCH1R (UniProt Q99705); experiment: MCH1R competition binding assay
Experimental: In vitro binding and function assays are performed on membranes derived from cells or tissues expressing endogenous MCH1R. Competition binding assays are performed to identify high affinity compounds. Briefly, either radiolabeled or europium labeled MCH with varying concentrations of competitor compound which are incubated with membranes expressing the receptor. Rat brain membrane or cell lines, including but not limited to human Kelly neuroblastoma cells, A-431 epidermoid cells, and rat PC-12 cells are known to express endogenous MCH1R and are used in the assay. Binding is allowed to proceed until equilibrium is reached then bound labeled MCH is separated from free MCH by capturing membranes onto a filter. The filters are washed to remove loosely associated MCH and labeled MCH is quantified. Data is analyzed and IC50 and Ki are calculated to determine compound affinity.

5-HT2c receptor = molecular target: T1, 5-HT2c receptor (Homo sapiens, UniProt P28335); experiment: 5-HT2c receptor binding assay (3H-mesulergine competition)
T1 sequence (P28335 33-458): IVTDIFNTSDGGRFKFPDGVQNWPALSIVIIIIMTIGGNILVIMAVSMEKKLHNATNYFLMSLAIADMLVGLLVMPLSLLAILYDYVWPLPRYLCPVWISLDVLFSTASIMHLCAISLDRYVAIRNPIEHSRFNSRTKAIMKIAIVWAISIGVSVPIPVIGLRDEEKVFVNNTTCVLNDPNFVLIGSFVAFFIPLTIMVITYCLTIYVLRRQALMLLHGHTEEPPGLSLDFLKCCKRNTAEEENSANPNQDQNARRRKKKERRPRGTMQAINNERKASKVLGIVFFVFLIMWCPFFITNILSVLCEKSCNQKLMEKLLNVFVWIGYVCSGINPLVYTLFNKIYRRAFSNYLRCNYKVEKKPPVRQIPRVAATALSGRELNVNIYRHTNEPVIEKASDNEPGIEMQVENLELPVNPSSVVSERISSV
Experimental: Binding assays for serotonin receptor, 5-HT2c receptor MCH antagonist compounds are evaluated for binding to the serotonin 5-HT2c receptor to determine receptor selectivity. Binding activity is assessed using a competitive assay with ^3H-mesulergine (Perkin Elmer), a 5-HT2c selective ligand, on membrane containing the 5-HT2c receptor. Briefly, 1 nM ^3H-mesulergine and varying concentrations of the compound are incubated with 5-HT2c receptor membranes, following an incubation period, the membranes are washed and ^3H-mesulergine bound to membranes is measured in a liquid scintillation counter. The amount of bound ^3H-mesulergine at the varying concentration of competitor compound is used to derive the affinity (Ki) of the compound for the 5-HT2c receptor. 5-HT2c receptor containing membranes are readily available from several companies including Perkin-Elmer and Euroscreen.

IC50 (MCH1R)	IC50 (5-HT2c receptor)	Compound
70 nM	2060 nM	CCN(CC)Cc1ccc2c(CN(C)C(=O)c3ccc(-c4ccc(C(F)(F)F)cc4)cc3)cccc2c1 [4′-Trifluoromethyl-biphenyl-4-carboxylic acid (6-diethylaminomethyl-naphthalen-1-ylmethyl)-methyl-amide]
12 nM	1130 nM	CN(C)Cc1ccc2c(CNC(=O)c3ccc(-c4ccc(F)cc4)cc3)cccc2c1 [4′-Fluoro-biphenyl-4-carboxylic acid (6-dimethylaminomethyl-naphthalen-1-ylmethyl)-amide]
